Assay results published in the NIST ThermoML archive (doi:10.1021/je050414d).
Numbers after ± are expanded uncertainties.

Assay: xn = mol fraction of the nth substance listed
Settings: 101 kPa, Liquid; for viscosity: Capillary tube (Ostwald / Ubbelohde) method

## CCOC(=O)OCC [diethyl carbonate] + Cc1ccccc1
298.15 K, x1 = 0.1014
  viscosity: 0.573 ± 0.007 mPa·s
  mass density: 874.5 ± 1.9 kg/m3
298.15 K, x1 = 0.1984
  viscosity: 0.59 ± 0.007 mPa·s
  mass density: 885.94 ± 1.8 kg/m3
298.15 K, x1 = 0.3006
  viscosity: 0.608 ± 0.007 mPa·s
  mass density: 897.67 ± 1.7 kg/m3
298.15 K, x1 = 0.4024
  viscosity: 0.627 ± 0.007 mPa·s
  mass density: 908.97 ± 1.6 kg/m3
298.15 K, x1 = 0.5212
  viscosity: 0.649 ± 0.007 mPa·s
  mass density: 921.72 ± 1.5 kg/m3
298.15 K, x1 = 0.6022
  viscosity: 0.664 ± 0.007 mPa·s
  mass density: 930.18 ± 1.4 kg/m3
298.15 K, x1 = 0.7016
  viscosity: 0.684 ± 0.007 mPa·s
  mass density: 940.28 ± 1.3 kg/m3
298.15 K, x1 = 0.7995
  viscosity: 0.702 ± 0.007 mPa·s
  mass density: 949.95 ± 1.2 kg/m3
298.15 K, x1 = 0.8975
  viscosity: 0.722 ± 0.008 mPa·s
  mass density: 959.36 ± 1.1 kg/m3
298.15 K, x1 = 1
  viscosity: 0.746 ± 0.008 mPa·s
  mass density: 968.97 ± 1.1 kg/m3
303.15 K, x1 = 0.1014
  viscosity: 0.542 ± 0.007 mPa·s
  mass density: 870.46 ± 2 kg/m3
303.15 K, x1 = 0.1984
  viscosity: 0.557 ± 0.007 mPa·s
  mass density: 881.62 ± 1.9 kg/m3
303.15 K, x1 = 0.3006
  viscosity: 0.573 ± 0.007 mPa·s
  mass density: 893.06 ± 1.8 kg/m3
303.15 K, x1 = 0.4024
  viscosity: 0.59 ± 0.007 mPa·s
  mass density: 904.06 ± 1.6 kg/m3
303.15 K, x1 = 0.5212
  viscosity: 0.609 ± 0.007 mPa·s
  mass density: 916.47 ± 1.5 kg/m3
303.15 K, x1 = 0.6022
  viscosity: 0.622 ± 0.007 mPa·s
  mass density: 924.71 ± 1.5 kg/m3
303.15 K, x1 = 0.7016
  viscosity: 0.639 ± 0.007 mPa·s
  mass density: 934.52 ± 1.4 kg/m3
303.15 K, x1 = 0.7995
  viscosity: 0.657 ± 0.007 mPa·s
  mass density: 943.93 ± 1.3 kg/m3
303.15 K, x1 = 0.8975
  viscosity: 0.674 ± 0.007 mPa·s
  mass density: 953.08 ± 1.2 kg/m3
303.15 K, x1 = 1
  viscosity: 0.695 ± 0.008 mPa·s
  mass density: 962.39 ± 1.1 kg/m3
313.15 K, x1 = 0.1014
  viscosity: 0.484 ± 0.007 mPa·s
  mass density: 860.95 ± 2 kg/m3
313.15 K, x1 = 0.1984
  viscosity: 0.497 ± 0.007 mPa·s
  mass density: 872.04 ± 1.9 kg/m3
313.15 K, x1 = 0.3006
  viscosity: 0.51 ± 0.007 mPa·s
  mass density: 883.39 ± 1.8 kg/m3
313.15 K, x1 = 0.4024
  viscosity: 0.523 ± 0.007 mPa·s
  mass density: 894.33 ± 1.7 kg/m3
313.15 K, x1 = 0.5212
  viscosity: 0.539 ± 0.007 mPa·s
  mass density: 906.66 ± 1.6 kg/m3
313.15 K, x1 = 0.6022
  viscosity: 0.55 ± 0.007 mPa·s
  mass density: 914.85 ± 1.6 kg/m3
313.15 K, x1 = 0.7016
  viscosity: 0.564 ± 0.007 mPa·s
  mass density: 924.6 ± 1.5 kg/m3
313.15 K, x1 = 0.7995
  viscosity: 0.579 ± 0.007 mPa·s
  mass density: 933.95 ± 1.4 kg/m3
313.15 K, x1 = 0.8975
  viscosity: 0.593 ± 0.007 mPa·s
  mass density: 943.04 ± 1.3 kg/m3
313.15 K, x1 = 1
  viscosity: 0.61 ± 0.007 mPa·s
  mass density: 952.32 ± 1.2 kg/m3
323.15 K, x1 = 0.1014
  viscosity: 0.434 ± 0.007 mPa·s
  mass density: 850.49 ± 2.1 kg/m3
323.15 K, x1 = 0.1984
  viscosity: 0.445 ± 0.007 mPa·s
  mass density: 861.33 ± 2 kg/m3
323.15 K, x1 = 0.3006
  viscosity: 0.457 ± 0.007 mPa·s
  mass density: 872.43 ± 1.9 kg/m3
323.15 K, x1 = 0.4024
  viscosity: 0.468 ± 0.007 mPa·s
  mass density: 883.11 ± 1.9 kg/m3
323.15 K, x1 = 0.5212
  viscosity: 0.481 ± 0.007 mPa·s
  mass density: 895.17 ± 1.7 kg/m3
323.15 K, x1 = 0.6022
  viscosity: 0.491 ± 0.007 mPa·s
  mass density: 903.16 ± 1.7 kg/m3
323.15 K, x1 = 0.7016
  viscosity: 0.503 ± 0.007 mPa·s
  mass density: 912.68 ± 1.6 kg/m3
323.15 K, x1 = 0.7995
  viscosity: 0.515 ± 0.007 mPa·s
  mass density: 921.81 ± 1.5 kg/m3
323.15 K, x1 = 0.8975
  viscosity: 0.527 ± 0.007 mPa·s
  mass density: 930.72 ± 1.4 kg/m3
323.15 K, x1 = 1
  viscosity: 0.541 ± 0.007 mPa·s
  mass density: 939.78 ± 1.3 kg/m3
333.15 K, x1 = 0.1014
  viscosity: 0.394 ± 0.007 mPa·s
  mass density: 841.39 ± 2.2 kg/m3
333.15 K, x1 = 0.1984
  viscosity: 0.403 ± 0.007 mPa·s
  mass density: 852.01 ± 2.1 kg/m3
333.15 K, x1 = 0.3006
  viscosity: 0.413 ± 0.007 mPa·s
  mass density: 862.85 ± 2 kg/m3
333.15 K, x1 = 0.4024
  viscosity: 0.422 ± 0.007 mPa·s
  mass density: 873.3 ± 1.9 kg/m3
333.15 K, x1 = 0.5212
  viscosity: 0.434 ± 0.007 mPa·s
  mass density: 885.09 ± 1.8 kg/m3
333.15 K, x1 = 0.6022
  viscosity: 0.442 ± 0.007 mPa·s
  mass density: 892.88 ± 1.8 kg/m3
333.15 K, x1 = 0.7016
  viscosity: 0.452 ± 0.007 mPa·s
  mass density: 902.2 ± 1.7 kg/m3
333.15 K, x1 = 0.7995
  viscosity: 0.461 ± 0.007 mPa·s
  mass density: 911.11 ± 1.6 kg/m3
333.15 K, x1 = 0.8975
  viscosity: 0.471 ± 0.007 mPa·s
  mass density: 919.81 ± 1.5 kg/m3
333.15 K, x1 = 1
  viscosity: 0.483 ± 0.007 mPa·s
  mass density: 928.69 ± 1.4 kg/m3
343.15 K, x1 = 0.1014
  viscosity: 0.358 ± 0.007 mPa·s
  mass density: 831.46 ± 2.3 kg/m3
343.15 K, x1 = 0.1984
  viscosity: 0.365 ± 0.007 mPa·s
  mass density: 841.79 ± 2.2 kg/m3
343.15 K, x1 = 0.3006
  viscosity: 0.373 ± 0.007 mPa·s
  mass density: 852.32 ± 2.1 kg/m3
343.15 K, x1 = 0.4024
  viscosity: 0.382 ± 0.007 mPa·s
  mass density: 862.48 ± 2 kg/m3
343.15 K, x1 = 0.5212
  viscosity: 0.391 ± 0.007 mPa·s
  mass density: 873.94 ± 1.9 kg/m3
343.15 K, x1 = 0.6022
  viscosity: 0.398 ± 0.007 mPa·s
  mass density: 881.51 ± 1.9 kg/m3
343.15 K, x1 = 0.7016
  viscosity: 0.407 ± 0.007 mPa·s
  mass density: 890.57 ± 1.8 kg/m3
343.15 K, x1 = 0.7995
  viscosity: 0.415 ± 0.007 mPa·s
  mass density: 899.24 ± 1.7 kg/m3
343.15 K, x1 = 0.8975
  viscosity: 0.425 ± 0.007 mPa·s
  mass density: 907.69 ± 1.6 kg/m3
343.15 K, x1 = 1
  viscosity: 0.435 ± 0.007 mPa·s
  mass density: 916.33 ± 1.6 kg/m3
353.15 K, x1 = 0.1014
  viscosity: 0.318 ± 0.006 mPa·s
  mass density: 821.53 ± 2.4 kg/m3
353.15 K, x1 = 0.1984
  viscosity: 0.326 ± 0.006 mPa·s
  mass density: 831.67 ± 2.3 kg/m3
353.15 K, x1 = 0.3006
  viscosity: 0.334 ± 0.006 mPa·s
  mass density: 842.02 ± 2.2 kg/m3
353.15 K, x1 = 0.4024
  viscosity: 0.342 ± 0.007 mPa·s
  mass density: 852.02 ± 2.1 kg/m3
353.15 K, x1 = 0.5212
  viscosity: 0.352 ± 0.007 mPa·s
  mass density: 863.29 ± 2 kg/m3
353.15 K, x1 = 0.6022
  viscosity: 0.358 ± 0.007 mPa·s
  mass density: 870.74 ± 2 kg/m3
353.15 K, x1 = 0.7016
  viscosity: 0.367 ± 0.007 mPa·s
  mass density: 879.66 ± 1.9 kg/m3
353.15 K, x1 = 0.7995
  viscosity: 0.375 ± 0.007 mPa·s
  mass density: 888.2 ± 1.8 kg/m3
353.15 K, x1 = 0.8975
  viscosity: 0.384 ± 0.007 mPa·s
  mass density: 896.52 ± 1.7 kg/m3
353.15 K, x1 = 1
  viscosity: 0.393 ± 0.007 mPa·s
  mass density: 905.02 ± 1.7 kg/m3
363.15 K, x1 = 0.1014
  viscosity: 0.293 ± 0.006 mPa·s
  mass density: 808.79 ± 2.5 kg/m3
363.15 K, x1 = 0.1984
  viscosity: 0.3 ± 0.006 mPa·s
  mass density: 819.07 ± 2.5 kg/m3
363.15 K, x1 = 0.3006
  viscosity: 0.306 ± 0.006 mPa·s
  mass density: 829.57 ± 2.4 kg/m3
363.15 K, x1 = 0.4024
  viscosity: 0.313 ± 0.006 mPa·s
  mass density: 839.71 ± 2.3 kg/m3
363.15 K, x1 = 0.5212
  viscosity: 0.322 ± 0.006 mPa·s
  mass density: 851.16 ± 2.1 kg/m3
363.15 K, x1 = 0.6022
  viscosity: 0.328 ± 0.006 mPa·s
  mass density: 858.77 ± 2.1 kg/m3
363.15 K, x1 = 0.7016
  viscosity: 0.336 ± 0.007 mPa·s
  mass density: 867.85 ± 2 kg/m3
363.15 K, x1 = 0.7995
  viscosity: 0.343 ± 0.007 mPa·s
  mass density: 876.55 ± 1.9 kg/m3
363.15 K, x1 = 0.8975
  viscosity: 0.351 ± 0.007 mPa·s
  mass density: 885.04 ± 1.8 kg/m3
363.15 K, x1 = 1
  viscosity: 0.358 ± 0.007 mPa·s
  mass density: 893.71 ± 1.8 kg/m3
